From US20060211764A1, “Cell activator, process for producing cell activator and apparatus therefor” (priority 2002, published 2006)

Columns and labels:
colon cancer = assay: Administration to a human patient, colon cancer; type: in vivo; settings: person
pancreatic cancer = assay: Administration to a human patient, pancreatic cancer; type: in vivo; settings: 30 g/day; in approximately 1 and a half months
Excerpt: In approximately 1 and a half months, the patient recovered.

breast cancer = assay: Administration to human patients, breast cancer; type: in vivo; settings: 20 g/day for 210 days
Excerpt: After extirpation, metastasized to the eye.
person, metastasized to the bone marrow.

infertility = assay: Administration to human patients, infertility; type: in vivo
pyruvic acid kinase = assay: Inhibition of pyruvic acid kinase activity; type: biochemical; settings: enzyme of the anaerobic glycolytic pathway
Excerpt: (§1) Morphologically, it causes vacuolation, and the expansion of the cytoplasm of cells, disintegration and aggregation of the nucleus. […] These are considered to inhibit not only the synthesis of ATP but also the actions of mRNA and be involved in the synthesis of RNA and DNA, and the generation of intracellular energy by acting on the metabolism of the intracellular organelle such as rough-surfaced endoplasmic reticulum, smooth-surfaced endoplasmic reticulum, ribosome, Golgi apparatus, etc., and as a result, controlling the metabolism of the cells, influencing the synthesis of proteins/glycoprotein, intracellular lipid metabolism, and movement and transport of ions. […] Morphologically, in the case that cells end up degenerating, the degeneration generally changes first to the nucleus followed by the cytoplasm.

mastitis = assay: Administration to bovines, mastitis; type: in vivo, bovine
Description: If an antibiotic drug is administered as usual, it takes at least one week after CR to make shipment of milk from the bovines, resulting in loss of 70,000-100,000 yen per bovine. […] Thus, the invention can contribute to dairy managerial economies.

laryngeal cancer = assay: Administration to a human patient, laryngeal cancer; type: in vivo; settings: person; 20 g/day for 150 days
[1] = test system: lactate dehydrogenases (LDH); assay: Inhibition of lactate dehydrogenase activity of cancer cells; type: biochemical
Excerpt: as §1

leukemia = assay: Administration to human patients, leukemia; type: in vivo; settings: person
lung cancer = assay: MIRS values in a patient suffering from lung cancer before and after taking CPL; type: in vivo, human; settings: after taking CPL; FIG. 15
Description: In addition, changes in MIRS values in a patient suffering from lung cancer before and after taking CPL.

[2] = test system: infantile asthma, atopic dermatitis; assay: Administration to a child, infantile asthma, atopic dermatitis; type: in vivo, human; settings: CPL solution plus spraying agent, 15 g/day for 40 days, 10 g/day for next 140 days
Description: In addition to the said solution, a spraying agent was used. The said spraying agent was prepared by filling a spraying container with a solution, which was prepared by further diluting by a flux the ointment manufactured by dissolving cyclic polylactic acids in a flux such as propylene glycol, etc. before they solidify, which was described in the <Example of manufacturing> section.

subclavian lymphoma = assay: Administration to a human patient, subclavian lymphoma; type: in vivo; settings: female, 50 g/day for 90 days
[3] = test system: bone-thinning disease osteoporosis; assay: Administration to a human patient, osteoporosis; type: in vivo; settings: person; 6 g/day for 180 days
hepatitis C = assay: Administration to a human patient, hepatitis C; type: in vivo; settings: person; 20 g/day for 16 months
tongue cancer = assay: Administration to a human patient, tongue cancer; type: in vivo; settings: person; 20 g/day for 120 days
lipid metabolism system = assay: Effects of CPL ingestion on lipid metabolism; type: in vivo
pneumonia = assay: Administration to bovine, pneumonia; type: in vivo; settings: 20 g/day for 1-2 days
cancer cells = assay: Effects on cancer cells; type: cell-based
Excerpt: as §1

[4] = test system: periodontal disease bacteria; assay: Control of proliferation of periodontal disease bacteria

Cyclic Poly-lactate [CPL]
colon tumors of 2 cm in size (Stage 2-3) (colon cancer; 20 g/day for 150 days, in 2 weeks): disappeared
examination for colon cancer (colon cancer; examination 5 months later): No abnormalities were found
outcome of patient with pancreatic cancer considered incurable (pancreatic cancer): recovered
course of breast cancer metastasized to the eye (breast cancer; after extirpation): satisfactory progress
tumor marker (breast cancer; person, breast cancer metastasized to bone marrow, decreased from 200): 5
number of patients who conceived (infertility; 10 patients with infertility, 6-9 g/day): 8
lower abdominal pain (infertility; person, endometriosis, ovarian cyst, 6 g/day, within the next 2-3 days): ameliorated
conception (infertility; person, after endometriosis symptoms ameliorated): naturally conceived
activity of pyruvic acid kinase (pyruvic acid kinase): inhibits
response of mastitis (mastitis; oral, 50 g of CPL (powder) dissolved in water): Complete response
milking from the other normal udders during treatment (mastitis; treatment using CPL alone): available
outcome of laryngeal cancer (laryngeal cancer): cured
activity of lactate dehydrogenases (LDH) [1]: inhibits
outcome of leukemia (leukemia; 15-20 g/day for 170 days): cured
outcome of leukemia (leukemia; 15 g/day for 5 months): cured
outcome of leukemia (leukemia; 15 g/day for 220 days): cured
recurrence of leukemia (leukemia; for 2 years onwards): No recurrence
MIRS values in patient suffering from lung cancer (lung cancer): increased significantly
asthmatic seizures [2]: stopped
eczema on the back and face [2]: disappeared
itchiness [2]: cured
CEA (subclavian lymphoma; decreased from 20.4): 5.4
CA 15 (subclavian lymphoma; decreased from 70): 20.3
bone density [3]: increased
condition of hepatitis C patient (hepatitis C): satisfactory condition
shadow on the liver (hepatitis C): disappeared
outcome of tongue cancer (tongue cancer): completely disappeared
fatty acid composition of triglyceride (lipid metabolism system): changes
symptom of pneumonia (pneumonia): improved
proliferation of cancer cells (cancer cells): controls the proliferation
controlling the proliferation of periodontal disease bacteria [4]: effective
